Assay results taken from PubChem BioAssay AID2060890 (Molecular Pharmacology Branch, DTP, NCI, 2025).

Test system: LG0703-F948-PDC complex spheroid viability
Assay: Anticancer human tumor LG0703-F948-PDC patient-derived lung adenocarcinoma cell line growth inhibition [RAS]
Conditions: for viability, T/C: stronger effect = lower value
Outline: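 Multi-cell-type spheroids: tumor cells plus HUVEC endothelial cells and mesenchymal stem cells. RAS-pathway inhibitors were combined with targeted agents, each dosed in half-log steps down from clinical Cmax, or from 10 microM when Cmax was unknown.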
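Also: spheroids exposed to agents for 7 days.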
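For viability, T/C in this document: 100% = DMSO vehicle wells.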

CC(C)n1nc(-c2ccc3oc(N)nc3c2)c2c(N)ncnc21 + C#Cc1c(F)ccc2cc(O)cc(-c3ncc4c(N5CC6CCC(C5)N6)nc(OCC56CCCN5CC(F)C6)nc4c3F)c12 gave an IC50 (curve of first compound, second compound 0.0316 µM) of 4.71 nM, an IC50 (curve of first compound, second compound 0.1 µM) of 3.96 nM and an IC50 (curve of first compound, second compound 0.316 µM) of 3.99 nM. It also gave an IC50 (curve of first compound, second compound 1 µM) of 2.13 nM, an IC50 (curve of first compound, second compound 3.16 µM) of 0.608 nM and an IC50 (curve of first compound, second compound 10 µM) of 0.343 nM. For the same compound, the viability, T/C (second compound 0.0316 µM, first compound 0.000316 µM) was 90.7%, the viability, T/C (second compound 0.0316 µM, first compound 0.001 µM) was 82.5% and the viability, T/C (second compound 0.0316 µM, first compound 0.00316 µM) was 59.2%. It also gave a viability, T/C (second compound 0.0316 µM, first compound 0.01 µM) of 32%, a viability, T/C (second compound 0.0316 µM, first compound 0.0316 µM) of 18% and a viability, T/C (second compound 0.0316 µM, first compound 0.1 µM) of 12.3%. For the same compound, the viability, T/C (second compound 0.1 µM, first compound 0.000316 µM) was 80.7%, the viability, T/C (second compound 0.1 µM, first compound 0.001 µM) was 85.6% and the viability, T/C (second compound 0.1 µM, first compound 0.00316 µM) was 47.7%. It also gave a viability, T/C (second compound 0.1 µM, first compound 0.01 µM) of 34%, a viability, T/C (second compound 0.1 µM, first compound 0.0316 µM) of 19.7% and a viability, T/C (second compound 0.1 µM, first compound 0.1 µM) of 11%. For the same compound, the viability, T/C (second compound 0.316 µM, first compound 0.000316 µM) was 88.3%, the viability, T/C (second compound 0.316 µM, first compound 0.001 µM) was 75.3% and the viability, T/C (second compound 0.316 µM, first compound 0.00316 µM) was 57.6%. The viability, T/C (second compound 0.316 µM, first compound 0.01 µM) was 27.1%, the viability, T/C (second compound 0.316 µM, first compound 0.0316 µM) was 11.2% and the viability, T/C (second compound 0.316 µM, first compound 0.1 µM) was 8.26%. It also gave a viability, T/C (second compound 1 µM, first compound 0.000316 µM) of 67.6%, a viability, T/C (second compound 1 µM, first compound 0.001 µM) of 51% and a viability, T/C (second compound 1 µM, first compound 0.00316 µM) of 50.2%. For the same compound, the viability, T/C (second compound 1 µM, first compound 0.01 µM) was 21.1%, the viability, T/C (second compound 1 µM, first compound 0.0316 µM) was 9.33% and the viability, T/C (second compound 1 µM, first compound 0.1 µM) was 5.14%. The viability, T/C (second compound 3.16 µM, first compound 0.000316 µM) was 58.6%, the viability, T/C (second compound 3.16 µM, first compound 0.001 µM) was 44.2% and the viability, T/C (second compound 3.16 µM, first compound 0.00316 µM) was 23.4%. The viability, T/C (second compound 3.16 µM, first compound 0.01 µM) was 13.9%, the viability, T/C (second compound 3.16 µM, first compound 0.0316 µM) was 5.52% and the viability, T/C (second compound 3.16 µM, first compound 0.1 µM) was 3.09%. The viability, T/C (second compound 10 µM, first compound 0.000316 µM) was 50.9%, the viability, T/C (second compound 10 µM, first compound 0.001 µM) was 37.8% and the viability, T/C (second compound 10 µM, first compound 0.00316 µM) was 16.5%. It also gave a viability, T/C (second compound 10 µM, first compound 0.01 µM) of 4.6%, a viability, T/C (second compound 10 µM, first compound 0.0316 µM) of 2.45% and a viability, T/C (second compound 10 µM, first compound 0.1 µM) of 0.63%.

CC1(C)CCC(Nc2ncc(C(F)(F)F)c(-c3c[nH]c4c(P(C)(C)=O)c(C#N)ccc34)n2)CN1 (centres undefined) was tested, and the viability, T/C (compound 0.000949 µM) was 91% [middle of 4 runs], the viability, T/C (compound 0.003 µM) was 76.9% [middle of 4 runs] and the viability, T/C (compound 0.00949 µM) was 68.7% [middle of 4 runs]. For the same compound, the viability, T/C (compound 0.03 µM) was 67.9% [middle of 4 runs], the viability, T/C (compound 0.0949 µM) was 65.8% [middle of 4 runs] and the viability, T/C (compound 0.3 µM) was 67.9% [middle of 4 runs]. It also gave an IC50 (curve of compound) greater than 300 nM.
